Laboratory results published in US11384172B2, “Polymer, antimicrobial agent, disinfectant, antimicrobial material, disinfectant material, antimicrobial method, and disinfecting method” (JSR CORPORATION, priority 2015, dated 2022).

Legend:
Experiment in all cases: Antimicrobial and disinfecting properties test (liquid medium dilution series, visual turbidity)
Type in all cases: cell-based
Details in all cases: 37° C., 16 hours
[1] = system: E. coli (NDM-1 producing strain)
Experimental: (§1) Into 500 mL of hexane, 10 g of the polymer obtained in each of the above Synthesis Examples was added dropwise over 2 hours, and then vacuum drying was performed at 40° C. for 24 hours. The powder thus obtained was used for a test.
(§2) 30.4 g of a medium (Mueller Hinton II) was weighed out, and dissolved in 800 mL of sterile water, and the resultant mixture was subjected to an autoclave treatment at 121° C. and 2 atm for 15 minutes.
(§3) Each of the bacteria of the following (1) to (8) was suspended in 1 mL of the liquid medium obtained in the above “preparation of liquid medium”, OD600 was measured, and a liquid medium was added so that the amount of bacteria is 1×10^8 cfu/mL to prepare each of the bacterial liquids.
(3) E. coli (NDM-1 producing strain)
(§4) A polymer (A-1) and water were mixed to prepare 10 mg/mL of a polymer aqueous solution. […]
(§5) The turbidity of each of the wells was visually discriminated and the growing state of the bacteria was confirmed. The concentrations of the dilution series, at which it was visually determined that the antimicrobial action and disinfecting action were performed without cloudiness, are shown in Table 3.
(§6) The antimicrobial and the disinfecting properties were evaluated in a similar manner as in Example 1 except that each of the compounds shown in Table 3 was used in place of the polymer (A-1) in Example 1. […]

[2] = system: S. aureus (drug sensitive strain, ATCC29213)
Experimental: as §1, §2, §3
(2) S. aureus (drug sensitive strain, ATCC29213)
as §4, §5, §6

[3] = system: MRSA (S. aureus methicillin-resistant strain)
Experimental: as §1, §2, §3
(8) MRSA (S. aureus methicillin-resistant strain)
as §4, §5, §6

[4] = system: E. coli (drug sensitive strain, DH5α)
Experimental: as §1, §2, §3
(1) E. coli (drug sensitive strain, DH5α)
as §4, §5, §6

[5] = system: Klebsiella pneumoniae (KPC-2 producing strain, ST258)
Experimental: (5) Klebsiella pneumoniae (KPC-2 producing strain, ST258)
Into 897.6 μL of the prepared liquid medium, 102.4 μL of the above-described polymer aqueous solution was added so that the concentration of the polymer is 1024 μg/mL. This solution was diluted 2 times in wells of a 96-well plate to prepare a dilution series of 1024 μg/mL to 0.015625 μg/mL. Next, 5 μL of a bacterial liquid was added to each of the wells and incubated at 37° C. for 16 hours.

[6] = system: A. baumannii (OXA-23 producing strain, ST2)
Experimental: as §1, §2, §3
(6) A. baumannii (OXA-23 producing strain, ST2)
as §4, §5, §6

[7] = system: Pseudomonas aeruginosa (MP-1 producing strain, ST235)
Experimental: as §1, §2, §3
(7) Pseudomonas aeruginosa (MP-1 producing strain, ST235)
as §4, §5, §6

[8] = system: E. coli (IMP-1 producing strain, ST131)
Experimental: as §1, §2, §3
(4) E. coli (IMP-1 producing strain, ST131)
as §4, §5, §6

Compound: N=C(N)NC(N)=Nc1ccccc1 [Phenyl biguanide, phenyl biguanide]
- concentration of the dilution series at which antimicrobial and disinfecting action was visually determined without cloudiness [1]: 1024 µg/mL
- concentration of the dilution series at which antimicrobial and disinfecting action was visually determined without cloudiness [2]: >1024 µg/mL
- concentration of the dilution series at which antimicrobial and disinfecting action was visually determined without cloudiness [3]: >1024 µg/mL
- concentration of the dilution series at which antimicrobial and disinfecting action was visually determined without cloudiness [4]: >1024 µg/mL
- concentration of the dilution series at which antimicrobial and disinfecting action was visually determined without cloudiness [5]: >1024 µg/mL
- concentration of the dilution series at which antimicrobial and disinfecting action was visually determined without cloudiness [6]: 1024 µg/mL
- concentration of the dilution series at which antimicrobial and disinfecting action was visually determined without cloudiness [7]: >1024 µg/mL
- concentration of the dilution series at which antimicrobial and disinfecting action was visually determined without cloudiness [8]: 1024 µg/mL
